Assay results from US20040023840A1, “Combination of organic compounds” (priority 2003, published 2004).
Like-named read-outs stand apart in the source and are kept apart here.

Tests used:
[1] = tested on: SHR with endothelial dysfunction; assay: Survival of SHR with chronic NO synthase blockade (L-NAME), endothelial dysfunction model; assay type: in vivo, rat; settings: for survival rate: SHR + L-NAME 12 weeks; for kidney lesions / proteinuria: low doses of valsartan and enalapril
Protocol: Male 20-24 week-old SHR, purchased from RCC Ldt (Fullingsdorf, Switzerland), are maintained in a temperature- and light-controlled room with free access to rat chow (Nafag 9331, Gossau, Switzerland) and tap water. The experiment is p rformed in accordance with the NIH guidelines and approved by the Canton Veterinary office (Bew 161, Kantonales V t rin{overscore (a)}ramt, Liestal, Switzerland). All rats are treated with the NO synthase inhibitor L-NAME (Sigma Chemicals) administered in drinking water (50 mg/l) for 12 weeks. The average daily dose of L-NAME calculated from the water consumed was 2.5 mg/kg/d (range 2.1-2.7).
(§1) The rats are divided into 5 groups: group 1, control (n=40); Group 2, valsartan (val5, 5 mg/kg/d; n=40); Group 3, enalapril (ena1, 1 mg/kg/d; n=30); Group 4, a combination (ena1val5) of enalapril (1 mg/kg/d) and valsartan (5 mg/kg/d); n=30) and Group 5, valsartan (val50, 50 mg/kg/d; n=30). The drugs are administered in drinking fluid. […] The pressor effect of Ang II at […] obtained in controls normotensive rats is reduced by 49% and 73% after treatment with valsartan 5 and 50 mg/kg/d, respectively (Gervais et al. 1999). The response to Ang I injected in Wistar Kyoto rats pretreated with enalapril 1 mg/kg/d or valsartan 5 mg/kg/d is similar.
Body weight is measured every week. Systolic blood pressure and heart rate are recorded by tail cuff plethysmography 3 and 2 weeks before starting the study and at 2 weeks after drug administration. Urine is collected over a 24 hour period from rats kept in individual (metabolic) cages the week before starting treatment and at weeks 4 and 12 for volume measurement and protein, creatinine, sodium and potassium determination using standard laboratory methods. At the same time points, blood samples are withdrawn from the retro-orbital plexus (maximum 1 ml) for creatinine, Na^+ and K^+ assays.
Ten rats from each group are sacrificed at 4 weeks for collection of kidney and heart for morphological analysis. The remaining rats are sacrificed at 12 weeks. Cardiac and kidney weight is recorded. Terminal blood sampling is performed in 5% EDTA at 4 (morphometry study) and 12 (end of the study) weeks for aldosterone, determination by radioimmunoassay using a DPC coat-a-count aldosterone-RIA kit (Bühlmann, Switzerland).
All data are expressed as mean±SEM. Statistical analysis is performed using a one-way ANOVA, followed by a Duncan's multiple range test and a Newman-Keuls test, 7 for comparison between the different groups. Results with a probability value of less than 0.05 are deemed statistically significant.

[2] = tested on: response to Ang I; assay: Response to Ang I injected in pretreated Wistar Kyoto rats; assay type: in vivo, rat; settings: Wistar Kyoto rats pretreated with enalapril 1 mg/kg/d or valsartan 5 mg/kg/d; the two compared
Protocol: as §1

[3] = tested on: pressor effect of Ang II; settings: Ang II at 1 mg/kg, normotensive rats, cited from earlier work
[4] = non-blood pressure reducing doses in drinking fluid: valsartan 5 mg/kg/d, enalapril 1 mg/kg/d, or both combined

## CCOC(=O)[C@H](CCc1ccccc1)N[C@@H](C)C(=O)N1CCC[C@H]1C(=O)O [enalapril]
[1]; [4]
  survival rate: 55%
[1]; SHR + L-NAME
  kidney lesions: no reduction
  proteinuria: no decrease
[2]
  response to Ang I: similar

## CCCCC(=O)N(Cc1ccc(-c2ccccc2-c2nnn[nH]2)cc1)[C@H](C(=O)O)C(C)C [valsartan]
[1]; high dose valsartan 50 mg/kg/d in drinking fluid
  survival rate: 95%
[1]; [4]
  survival rate: 67%
[1]; SHR + L-NAME
  kidney lesions: no reduction
  proteinuria: no decrease
[1]; SHR + L-NAME, valsartan 50 mg/kg, increase in blood pressure significantly attenuated
  systolic blood pressure: above 250 mmHg
[2]
  response to Ang I: similar
[3]; valsartan 5 mg/kg/d (Gervais et al. 1999)
  reduction of pressor effect of Ang II: 49%
[3]; valsartan 50 mg/kg/d (Gervais et al. 1999)
  reduction of pressor effect of Ang II: 73%
